Results reported in patent US20260240805A1, “ENTACTOGEN-ASSISTED THERAPY FOR ALCOHOL USE DISORDER AND ADDICTION-RELATED CONDITIONS AND COMORBIDITIES” (Solvonis Therapeutics Ireland Holdings Limited, priority 2021, published 2026).
“Also recorded” adds a separate entry of the source. Where two headings read alike, the source gives them in different places.

Tests used:
alcohol relapse = conditions: only in conjunction with psychosocial interventions; cited from earlier work
[1] = cited from earlier work
AUD = conditions: early uncontrolled studies; cited from earlier work
patients with AUD [2] = test: Drinking behavior (TLFB, units of alcohol per week), open-label MDMA-assisted therapy study in AUD post-detox (Example 8); assay type: in vivo, human
patients with AUD [3] = test: Physiological measures, SUDS and Drug Effects during MDMA sessions (Example 8); assay type: in vivo, human
Experimental: (§1) Dosing with MDMA occurred twice during the eight-week course on weeks 3 and 6.
Physiological and tolerability effects during MDMA sessions: In total, 26 drug-assisted psychotherapy sessions with MDMA were administered during the trial. Temperature, blood pressure and heart rate were measured at t=0, before taking MDMA, then half-hourly up to t=2 hours, then hourly thereafter for a minimum of 6-hours from the time of dosing (see FIG. 7).
Subjective Units of Distress (SUDS) and Participant report of Drug Effects were also measured, hourly, throughout the MDMA sessions (see FIG. 7). […] Participants gave their own subjective score (0-10) of whether they felt Drug Effects, and the therapists also recorded their own objective score of how “altered” the participant appeared. There was no significant difference between Observers' and Participants' Drug Effects scores. Drug Effects rose expectedly over the first two hours, with a notable further increase after the booster dose was given at t=2 hours, and a subsequent plateau then decline over the following six hours.

patients with AUD [4] = test: Profile Of Mood States (POMS), seven-day follow-up after MDMA sessions (Example 8); assay type: in vivo, human; conditions: daily for seven days after each MDMA session; 14 participants, 26 sessions
From the text: (§2) Following the end of the eight-week therapeutic course, participants carried out additional follow-up questionnaires.
Seven-day follow-up after MDMA sessions: Considerable medical literature and the popular press report the anecdotal observation of ecstasy users experiencing an acute ‘come-down’ effect and a drop in mood in the days after using the drug recreationally. In order to measure this prospectively with clinical MDMA, we measured participants' mood states by daily Profile Of Mood States (POMS) measurements for seven days after each MDMA session (see FIG. 9). Positive scores represent depressed affect, zero represents no change in mood/affect and results below zero represent a positively felt mood.

patients with AUD [5] = test: PHQ-9, GAD-7, psychosocial functioning and quality of life measures (Example 8); assay type: in vivo, human
patients with AUD [6] = test: Suicidality, C-SSRS (Example 8); assay type: in vivo, human; conditions: during the course of the study
From the text: as §2
Suicidality. Participants underwent the C-SSRS at screening, baseline, throughout the eight-week therapy course, in the week after each MDMA session and at the three-, six-, and nine-month follow-up visits.

patients with AUD [7] = test: Adverse events and tolerability (Example 8); assay type: in vivo, human
Experimental: This Example details an open-label, within-subjects, safety and tolerability feasibility study that was conducted in 14 patients aged 18-65 years old diagnosed with AUD who had recently undergone detoxification, and received MDMA-assisted therapy.
as §1

[8] = system: patients diagnosed with AUD; test: Depression and anxiety levels, FIG. 3 and FIG. 4; assay type: in vivo, human; conditions: patients remaining at 9 months; 100% at screening
Experimental: Prior to undergoing the disclosed methods, specifically during the screening session, 12 patients were assessed for levels of depression. […] Directly after going through the detoxification process (noted as “baseline” in FIG. 3), one patient had mild depression, two had moderate depression, zero had moderately severe depression, and two had severe depression (out of 11 patients remaining in the study). The patients were then reassessed at 3, 6, and 9 months post-baseline (i.e., after completing a detoxification course, and prior to beginning the MDMA-assisted therapy regimen), wherein it was discovered that, at 3 months, two had mild depression, one had moderate depression, three had moderately severe depression, and one had severe depression (out of 9 patients remaining in the study); at 6 months, no patients suffered from mild or moderate depression, two had moderate severe depression, and one had severe depression (out of 6 patients remaining in the study); finally, at 9 months, one patient had mild depression, one had moderate depression, and one had moderate severe depression, with none having severe depression.
Prior to undergoing the disclosed methods, specifically during the screening session, 12 patients were assessed for levels of anxiety. […]

[9] = cited from earlier work; remark: listed apart in the source
[10] = cited from earlier work; remark: listed apart in the source
[11] = doses of 100-125 mg; cited from earlier work
individuals with PTSD = conditions: cited from earlier work
CYP3A4 = CYP3A4 (Homo sapiens, UniProt P08684); conditions: single dose of MDMA of 1.5 mg/kg; cited from earlier work
CYP3A4, sequence (P08684 whole entry): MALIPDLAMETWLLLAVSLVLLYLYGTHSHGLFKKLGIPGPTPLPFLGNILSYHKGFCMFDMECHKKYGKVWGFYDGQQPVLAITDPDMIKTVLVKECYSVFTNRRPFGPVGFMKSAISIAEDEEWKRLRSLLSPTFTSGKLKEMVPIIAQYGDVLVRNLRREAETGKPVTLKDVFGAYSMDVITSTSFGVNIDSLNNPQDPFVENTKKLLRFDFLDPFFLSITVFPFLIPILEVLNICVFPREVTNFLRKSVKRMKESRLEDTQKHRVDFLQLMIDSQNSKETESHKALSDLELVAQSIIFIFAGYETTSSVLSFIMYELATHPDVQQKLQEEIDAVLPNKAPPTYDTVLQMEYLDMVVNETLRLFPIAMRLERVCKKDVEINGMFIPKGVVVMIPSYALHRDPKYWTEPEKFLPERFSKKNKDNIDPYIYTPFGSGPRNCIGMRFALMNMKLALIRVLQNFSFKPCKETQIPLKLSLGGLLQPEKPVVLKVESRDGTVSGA

[12] = cited from earlier work; remark: listed apart in the source
[13] = nine-month follow-up end point, of 14 participants

## O=C1CC[C@@]2(O)[C@H]3Cc4ccc(O)c5c4[C@@]2(CCN3CC2CC2)[C@H]1O5 [naltrexone]
Alcohol relapse
  effect in relapse prevention: only minor positive effects in relapse prevention

## CC(=O)NCCCS(=O)(=O)O [acamprosate]
Alcohol relapse
  effect in relapse prevention: only minor positive effects in relapse prevention

## CNC(C)Cc1ccc2c(c1)OCO2 (stereo not shown) [MDMA base]
[1]
  solubility in water: insoluble in water

## CCN(CC)C(=O)[C@@H]1C=C2c3cccc4[nH]cc(c34)C[C@H]2N(C)C1 [LSD]
AUD
  abstinence rates: 30-50%

## CNC(C)Cc1ccc2c(c1)OCO2 (stereo not shown) [MDMA, 1-(1,3-benzodioxol-5-yl)-N-methylpropan-2-amine]
Patients with AUD [2]; 3 months post-detox vs pre-detox
  decrease in alcohol consumption: 87.1%
Patients with AUD [2]; 6 months post-detox vs pre-detox
  decrease in alcohol consumption: 71%
Patients with AUD [2]; 6 months post-detox, 130.6 units per week pre-detox
  units of alcohol per week: 38.0 units of alcohol per week
Patients with AUD [2]; 9 months post-detox vs pre-detox
  decrease in alcohol consumption: 85.7%
Patients with AUD [2]; 9 months post-detox, 130.6 units per week pre-detox
  average units of alcohol consumption per week: 18.7 units/week
Patients with AUD [2]; along the course of treatment
  outcomes of other comorbid addictions (SUDs and BAs): unexpectedly improved outcomes of other comorbid addictions
Patients with AUD [2]; [13]
  participants drinking fewer than 14 units of alcohol per week: 11 participants
  participants relapsed to drinking more than 14 units of alcohol per week: three
  participants totally abstinent from alcohol: nine
Patients with AUD [2]; over 9 months, 75% in the Outcomes Study without MDMA
  participants drinking in excess of 14 units of alcohol a week: 21%
Patients with AUD [3]; 26 sessions, except for one participant
  temperature, blood pressure and heart rate during MDMA sessions: remained within normal limits
Patients with AUD [3]; by the end of the MDMA session day
  Drug Effects scores (0-10): all drug effects had returned to baseline
Patients with AUD [3]; hourly during the MDMA session
  Subjective Units of Distress (SUDS): subsequently reduced during the course of the session
Patients with AUD [3]; in vivo
  rise in blood pressure, temperature and heart rate over the course of the MDMA session: mild, transient rise
Patients with AUD [3]; weeks and months following participation
  neurocognitive impairments: No participants reported any significant neurocognitive impairments
Patients with AUD [4]
  POMS mood disturbance: no evidence of any mood disturbance; also recorded: sustained a positive mood for seven days
Patients with AUD [5]; after screening and baseline time points
  PHQ-9 and GAD-7 scores: reduction in both anxiety and depression
Patients with AUD [5]; in vivo
  psychosocial functioning: improved across the cohort
  quality of sleep, quality of life, compassion and empathy scales: demonstrating benefits and improvements
Patients with AUD [6]
  C-SSRS suicidal ideation, intent or plans or self-harm behavior: No participants reported current suicidal ideation, intent or plans or self-harm behavior
Patients with AUD [7]; AUD post-detox, 187.5 mg each session
  tolerability of MDMA treatment: well-tolerated by all participants
Patients with AUD [7]; following clinical MDMA
  desire to use illicit ecstasy/illicit MDMA: No participants reported any desire to use illicit ecstasy/illicit MDMA
Patients with AUD [7]; in vivo
  psychotic symptoms: No psychotic symptoms were observed
[8]
  patients found to have anxiety: about 67%
  patients found to have depression: 50%
[9]; 100 mg MDMA, healthy volunteers, brain imaging studies
  time of peak subjective effects: 100 min
[9]; 100 mg MDMA, healthy volunteers
  duration of subjective effects: approximately 4.5 hours
[9]; Harris 2002
  time of peak subjective effects: 90 to 120 min
  time to return to baseline values: 5 to 6 h
  time to subjective effects: approximately 45 mins
[9]; one dose
  duration of effects: 4 to 5 h
[9]; patients with PTSD, after the initial dose
  onset of action: 45 to 75 min
[9]; patients with PTSD
  time of peak drug effects: 2 to 5 h
[9]; with the booster dose
  duration of effects: 5 to 6 h
[10]; humans, doses 100-125 mg
  time to peak plasma concentration: 2 to 3 h
[10]; similar results for doses 50-125 mg
  elimination half-life: 7 to 9 h
[11]
  increase in diastolic blood pressure: 14.4-25 mmHg
  increase in heart rate: 26-30 bpm
Individuals with PTSD; 12 subjects, Oehen 2013
  effect size, self-reported improvement: 1.1
Individuals with PTSD; chronic, treatment-resistant PTSD, Mithoefer 2010, 2013
  symptom relief, long-term follow-up: statistically and clinically-significant gains in symptom relief with no subjects reporting harm
Individuals with PTSD; phase 3, severe PTSD, even with comorbidities
  safety and tolerability: safe and well-tolerated
Individuals with PTSD; phase 3, severe PTSD, Mitchell 2021
  efficacy vs therapy with inactive placebo: highly efficacious
CYP3A4
  CYP3A4 activity: decrease in CYP3A4 activity
[12]; 125 mg MDMA, third of three MDMA-assisted sessions, one individual
  serious adverse reaction: increased frequency of ventricular extrasystoles (PVCs)
[12]; Phase 1 studies in healthy volunteers
  commonly reported effects: elevation in blood pressure and heart rate, increased anxiety or dysphoria, and dilated pupils
